25 compounds from patent US20170001990A1 (Genentech, Inc., priority 2014, published 2017) can be followed below.

Several values for one entry are separate records, joined by “and”; a condition that tells them apart may be missing. Equal entries are not always repeated.

The assay addresses Human recombinant carboxy-terminal his-tagged LDHA (amino acids 2-332) (Homo sapiens, UniProt P00338). The assay can be described thus: LDHA enzyme inhibition assay (NADH fluorescence). The note with it: LDHA IC50 (μM), 1 nM LDHA, NADH and pyruvate, stereochemistry of tested sample given.
In the case of `O=C1CC(c2ccsc2)(c2ccc3ccccc3c2)NC(=O)C1Sc1ccccc1Cl` (stereo not shown) [Example 32, 3-(2-chlorophenyl)sulfanyl-6-(2-naphthyl)-6-(3-thienyl)piperidine-2,4-dione], the IC50 was determined as 0.01 µM.
Take `CN1C(=O)C(Sc2ccccc2Cl)C(=O)CC1(c1ccsc1)c1cccc(NC2CCOCC2)c1` (stereo not shown) [Example 34, 3-(2-chlorophenyl)sulfanyl-1-methyl-6-[3-(tetrahydropyran-4-ylamino)phenyl]-6-(3-thienyl)piperidine-2,4-dione]: the IC50 is 0.033 µM.
`O=C1CC(c2ccsc2)(c2ccc(N3CCOCC3)cc2O)NC(=O)C1Sc1ccccc1Cl` (stereo not shown) [Example 35, 3-(2-chlorophenyl)sulfanyl-6-(2-hydroxy-4-morpholino-phenyl)-6-(3-thienyl)piperidine-2,4-dione]: the IC50 was found to be 0.007 µM.
With `O=C1CC(c2ccsc2)(c2ccccc2O)NC(=O)C1Sc1ccccc1Cl` (stereo not shown) [Example 36, 3-(2-chlorophenyl)sulfanyl-6-(2-hydroxyphenyl)-6-(3-thienyl)piperidine-2,4-dione], the IC50 was 0.021 µM and 0.008 µM and 0.025 µM.
Regarding `O=C1CC(c2ccc(N3CCOCC3)cc2)(c2cccc(Br)n2)NC(=O)C1Sc1ccccc1Cl` (stereo not shown) [Example 38, 6-(6-bromopyridin-2-yl)-3-((2-chlorophenyl)thio)-6-(4-morpholinophenyl)piperidine-2,4-dione], the 50% inhibitory concentration (IC50) worked out at 0.004 µM.
With `O=C1CC(c2ccc(N3CCOCC3)cc2)(c2cccc(Nc3ccc(F)cc3)n2)NC(=O)C1Sc1ccccc1Cl` (stereo not shown) [Example 39, 3-((2-chlorophenyl)thio)-6-(6-((4-fluorophenyl)amino)pyridin-2-yl)-6-(4-morpholinophenyl)piperidine-2,4-dione] the figure was 0.003 µM and 0.012 µM; with `O=C1CC(c2ccc(N3CCOCC3)cc2)(c2cccc(Oc3ccc(F)c(F)c3)n2)NC(=O)C1Sc1ccccc1Cl` (stereo not shown) [Example 40, 3-(2-chlorophenyl)sulfanyl-6-[6-(3,4-difluorophenoxy)-2-pyridyl]6-(4-morpholinophenyl)piperidine-2,4-dione], 0.036 µM.
For the compound `O=C1CC(c2ccc(N3CCOCC3)cc2)(c2cccc(OC3CCCCC3)n2)NC(=O)C1Sc1ccccc1Cl` (stereo not shown) [Example 41, 3-((2-chlorophenyl)thio)-6-(6-(cyclohexyloxy)pyridin-2-yl)-6-(4-morpholinophenyl)piperidine-2,4-dione], the IC50 amounted to 0.016 µM.
As to `O=C1CC(c2ccc(N3CCOCC3)cc2)(c2cscn2)NC(=O)C1Sc1ccccc1Cl` (stereo not shown) [Example 42, 3-((2-chlorophenyl)thio)-6-(4-morpholinophenyl)-6-(thiazol-4-yl) piperidine-2,4-dione], the IC50 is 0.005 µM and 0.01 µM and 0.017 µM.
Regarding `O=C1CC(c2ccc(N3CCCCC3)cc2)(c2ccsc2)NC(=O)C1Sc1cc(O)ccc1Cl` (stereo not shown) [Example 43], the IC50 turned out to be 0.017 µM.
As to `O=C1CC(c2ccc(N3CC4(COC4)C3)cc2)(c2ccsc2)NC(=O)C1Sc1ccccc1Cl` (stereo not shown) [Example 45, 3-(2-chlorophenyl) sulfanyl-6-[4-(2-oxa-6-azaspiro[3.3]heptan-6-yl)phenyl]-6-(3-thienyl)piperidine-2,4-dione], the IC50 was 0.069 µM.
For the compound `O=C1CC(c2ccsc2)(c2cccc(Oc3ccccn3)n2)NC(=O)C1Sc1ccccc1Cl` (stereo not shown) [Example 46, 3-(2-chlorophenyl) sulfanyl-6-[6-(2-pyridyloxy)-2-pyridyl]-6-(3-thienyl)piperidine-2,4-dione], the IC50 was determined as 0.005 µM.
Take `O=C1CC(c2ccsc2)(c2cccc(OC3CCCC3)n2)NC(=O)C1Sc1ccccc1Cl` (stereo not shown) [Example 48, 3-((2-chlorophenyi)lliio)-6-(6-(cyclopentyloxy)pyridin-2-yl)-6-(thiophen-3-yl)piperidine-2 .4-dione]: the IC50 is 0.052 µM.
As to `O=C1CC(c2ccsc2)(c2cccc(OC3CCOC3)n2)NC(=O)C1Sc1ccccc1Cl` (stereo not shown) [Example 49, 3-((2-chlorophenyl)thio)-6-(6-((tetrahydrofuran-3-yl)oxy)pyridin-2-yl)-6-(thiophen-3-yl) piperidine-2,4-dione], the IC50 was determined as 0.025 µM.
On to `O=C1CC(c2ccsc2)(c2cccc(Oc3ccc(F)cc3F)n2)NC(=O)C1Sc1ccccc1Cl` (stereo not shown) [Example 50, 3-(2-chlorophenyl) sulfanyl-6-[6-(2,4-difluorophenoxy)-2-pyridyl]-6-(3-thienyl)piperidine-2,4-dione], for which the IC50 was 0.022 µM.
Consider `Cc1cc(Oc2cccc(C3(c4ccsc4)CC(=O)C(Sc4ccccc4Cl)C(=O)N3)n2)ccc1F` (stereo not shown) [Example 51, 5-((2-chlorophenyl)thio)-6′-(4-fluoro-3-methyl-phenoxy)-4-hydroxy-2-(thiophen-3-yl)-2,3-dihydro-[2,2′-bipyridin]-6(1H)-one], for which the IC50 was determined as 0.149 µM.
For `O=C1CC(c2ccsc2)(c2cccc(Oc3ccccc3F)n2)NC(=O)C1Sc1ccccc1Cl` (stereo not shown) [Example 52, 3-(2-chlorophenyl)sulfanyl-6-[6-(2-fluorophenoxy)-2-pyridyl]-6-(3-thienyl)piperidine-2,4-dione], the IC50 turned out to be 0.045 µM.
With `O=C1CC(c2ccsc2)(c2cccc(Oc3cccc(F)c3F)n2)NC(=O)C1Sc1ccccc1Cl` (stereo not shown) [Example 53, 3-(2-chlorophenyl)sulfanyl-6-[6-(2,3-difluoro-phenoxy)-2-pyridyl]-6-(3-thienyl)piperidine-2,4-dione] the figure was 0.011 µM; with `O=C1CC(c2ccsc2)(c2cccc(Oc3cncnc3)n2)NC(=O)C1Sc1ccccc1Cl` (stereo not shown) [Example 54, 3-(2-chlorophenyl)sulfanyl-6-(6-pyrimidin-5-yloxy-2-pyridyl)-6-(3-thienyl)piperidine-2,4-dione], 0.201 µM; with `O=C1CC(c2ccsc2)(c2cccc(Oc3ccc(Cl)cc3)n2)NC(=O)C1Sc1ccccc1Cl` (stereo not shown) [Example 58, 6′-(4-chlorophenoxy)-5-((2-chlorophenyl)thio)-4-hydroxy-2-(thiophen-3-yl)-2,3-dihydro-[2,2′-bipyridin]-6(1H)-one], 0.01 µM.
`COc1ccc(Oc2cccc(C3(c4ccsc4)CC(=O)C(Sc4ccccc4Cl)C(=O)N3)n2)cc1` (stereo not shown) [Example 59, 3-(2-chlorophenyl)sulfanyl-6-[6-(4-methoxyphenoxy)-2-pyridyl]-6-(3-thienyl) piperidine-2,4-dione]: the IC50 is 0.056 µM.
With `O=C1CC(c2ccsc2)(c2cccc(Oc3ccc4c(c3)CCC4)n2)NC(=O)C1Sc1ccccc1Cl` (stereo not shown) [Example 60, 5-((2-chlorophenyl)thio)-6′-((2,3-dihydro-1H-inden-5-yl)oxy)-4-hydroxy-2-(thiophen-3-yl)-2,3-dihydro-[2,2′-bipyridin]-6(1H)-one], the IC50 worked out at 0.009 µM.
Consider `COc1ccccc1Oc1cccc(C2(c3ccsc3)CC(=O)C(Sc3ccccc3Cl)C(=O)N2)n1` (stereo not shown) [Example 61, 3-(2-chlorophenyl)sulfanyl-6-[6-(2-methoxyphenoxy)-2-pyridyl]-6-(3-thienyl) piperidine-2,4-dione], for which the IC50 came to 0.02 µM.
Consider `O=C1CC(c2ccsc2)(c2cccc(Oc3cc(F)cc(F)c3)n2)NC(=O)C1Sc1ccccc1Cl` (stereo not shown) [Example 62, 3-(2-chlorophenyl)sulfanyl-6-[6-(3,5-difluoro-phenoxy)-2-pyridyl]-6-(3-thienyl)piperidine-2,4-dione], for which the IC50 is 0.036 µM.
With `O=C1CC(c2ccsc2)(c2cccc(Oc3cccc(Cl)c3)n2)NC(=O)C1Sc1ccccc1Cl` (stereo not shown) [Example 63, 6′-(3-chlorophenoxy)-5-((2-chlorophenyl)thio)-4-hydroxy-2-(thiophen-3-yl)-2,3-dihydro-[2,2′-bipyridin]-6(1H)-one] the figure was 0.037 µM.

The IC50 is the midpoint of a concentration-inhibition curve.
